The subject of data set [1] is SP1. Description: Vinblastine binding to SP1 by intrinsic tryptophan fluorescence. The conditions noted are these: native SP1; 80 μM Vinblastine shifts maximal emission to 356 nm. Set-up: species or system Populus tremula. On the procedure:
FIG. 23 is a graph showing the complex formation of the drug Vinblastine to SP1. Left panel-emission spectra (excitation wavelength=286.00 nm) of pure SP1 (48 μM in MES) was determined using a fluorometer. Both native (left curves) and unfolded (6M Guanidinum HCl)(right curves) SP1 were tested. The net effect of Vinblastine on Tryptophan fluorescence of native protein was calculated by subtracting the relative quenching by the unfolded protein from those of the native protein at the respective maximal emission wavelength (340 nm and 321 nm respectively). Note that the tryptophan fluorescence of both the folded and unfolded SP1 protein is quenched by Vinblastine complexing, but in the case of the folded protein is also accompanied by a red shift);
Vinblastine, a vinca alkaloid, is mainly useful for treating Hodgkin's disease, lymphocytic lymphoma, histiocytic lymphoma, advanced testicular cancer, advanced breast cancer, Kaposi's sarcoma. Vinblastine binding to SP1, was determined by Intrinsic Tryptophan fluorescence measurements.
SP1 has only one Tryptophan residue (Trp 48). […] Unfolded protein fluorescence is also quenched by Vinblastine (FIG. 23), but unlike the native protein it is not accompanied by red shift. Thus, folded SP1-Vinblastine association can be detected, and quantified by changes in its Intrinsic Tryptophan fluorescence.

The conditions of data set [2]: mouse, in vivo, iv.
Protocol: C57B1 male mice bearing the B16-F10 (B16) melanoma tumor were divided into three groups: Group A-injected once (iv with fluoresceinamine-SP1 conjugate (10 mg/ml, 0.1 ml per mouse), n=5 mice;
Group B-injected once with unconjugated fluoresceinamine solution (34 mM in PBS, 0.1 ml per animal); n=5 mice; and Group C received no treatment. n=2 mice. Internal organs were harvested 24 hours post injection, and stored at 70° C. Blood was collected and left at room temperature to coagulate. Tumor extracts and serum samples were analyzed on SDS PAGE, and proteins were blotted onto nitrocellulose. Immunodetection of SP1 was with rabbit anti SP1 and HRP-conjugated second antibody.
B16-F10 (B16) melanoma tumor C57B1 male mice bearing the B16-F10 (B16) melanoma tumor were prepared and cared for as described by Kalechman (Int J Cancer 2000; 86:281-8). B16F10 melanoma cells (5×10^5 or 5×10^6 cells/mouse) were injected into the lateral tail vein of the mice and the presence of cancer tumors was evaluated at day 14 following melanoma cell injection by an overall view of the mouse and/or histopathology examinations. […]

As to `CC[C@]1(O)C[C@@H]2CN(CCc3c([nH]c4ccccc34)[C@@](C(=O)OC)(c3cc4c(cc3OC)N(C)[C@H]3[C@@](O)(C(=O)OC)[C@H](OC(C)=O)[C@]5(CC)C=CCN6CC[C@]43[C@@H]65)C2)C1` [Vinblastine], the “effect on SP1 tryptophan fluorescence” value in data set [1] is given as “fluorescence quenching accompanied by a red shift”.

Take `Nc1ccc2c(c1)C(=O)OC21c2ccc(O)cc2Oc2cc(O)ccc21` [Fluoresceinamine]: the clearance from circulation entry in data set [2] is given as “rapidly cleared”.

Values taken from US20150273076A1, “SP1 POLYPEPTIDES, MODIFIED SP1 POLYPEPTIDES AND USES THEREOF” (Fulcrum SP Ltd., priority 2006, published 2015).
